{
  "source": "patent US12661342B2",
  "about": "“Heteroaryl compounds and therapeutic uses thereof in conditions associated with the alteration of the activity of beta-glucocerebrosidase” (GT GAIN THERAPEUTICS SA, priority 2019, dated 2026)",
  "data": [
    {"target": "T1, β-glucocerebrosidase (Homo sapiens, UniProt P04062, L483P)", "T1 construct": "host or cells: human Gaucher disease patient fibroblasts GM08760A", "T1 sequence (P04062 40-536 L483P)": "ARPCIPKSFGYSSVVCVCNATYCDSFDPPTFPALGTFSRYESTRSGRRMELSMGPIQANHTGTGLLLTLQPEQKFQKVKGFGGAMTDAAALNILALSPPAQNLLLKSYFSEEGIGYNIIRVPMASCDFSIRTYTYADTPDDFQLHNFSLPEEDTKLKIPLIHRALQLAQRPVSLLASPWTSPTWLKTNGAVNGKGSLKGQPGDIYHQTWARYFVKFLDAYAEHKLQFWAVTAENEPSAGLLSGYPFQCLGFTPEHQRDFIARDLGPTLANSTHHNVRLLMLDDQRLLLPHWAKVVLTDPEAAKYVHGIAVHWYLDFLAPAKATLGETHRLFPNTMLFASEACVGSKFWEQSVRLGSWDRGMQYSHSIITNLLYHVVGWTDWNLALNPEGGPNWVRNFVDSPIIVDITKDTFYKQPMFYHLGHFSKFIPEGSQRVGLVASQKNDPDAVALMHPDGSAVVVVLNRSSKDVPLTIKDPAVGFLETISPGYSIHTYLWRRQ", "assay": "Enhancement of β-glucocerebrosidase activity measured in Gaucher disease fibroblasts (4-MU-β-D-glucopyranoside substrate, intact cells)", "type": "cell-based", "set-up": "key: Increase in comparison with non-treated of >2.0 fold is shown as A; Increase in comparison with non-treated of >1.7-2.0 fold is shown as B; Increase in comparison with non-treated of 1.2-1.7 fold is shown as C; D means that no increase compared with non-treated cells was detected in this method", "conditions": "GBA fibroblasts bearing L444P (GM08760A, homozygous p.L444P); compound at concentrations between 6 and 50 μM; 4 days incubation", "procedure": "Human fibroblasts from a patient with Gaucher disease homozygous for p.L444P mutation (GM08760A) were purchased from Coriell Institute for Medical Research (Camden, NJ, USA).\nFibroblasts were seeded at 5×10^3 cells per well in 96-well cell culture plates (Corning, NY, USA) in Dulbecco's Modified Eagle's Media (DMEM) supplemented with 10% of fetal bovine serum (FBS), 1% penicillin/streptomycin (P/S) (Thermo Fisher Scientific, Waltham, MA, USA) and grown at 37° C., 5% CO2 overnight for cell attachment. Subsequently, cells were incubated in the absence or presence of the compounds at the desired concentration for 4 days. After incubation, cells were washed twice with phosphate-buffered saline (PBS) and enzyme activity assay was performed.\nβ-glucocerebrosidase activity in intact cultured cells was measured by using 4-methylumbelliferyl-β-D-glucopyranoside substrate (Apollo Scientific, UK). Briefly, cells were incubated with 4-MU-β-D-glucopyranoside in 0.1 M acetate buffer pH=4 at 37° C. for 1 hour. The reaction was stopped by adding 200 μL at 100 mM glycine-NaOH pH=10.7. The liberated 4-MU was measured on a GloMax Discover plate reader (Promega, Madison, WI, USA) with and excitation at 340 nm and emission at 460 nm. Enzyme activities were expressed in treated cells as X-fold increase in comparison with non-treated cells (X=1 represents no enhancement).\nThe capacity of the compounds of the disclosure to produce an increase in enzyme activity in GBA fibroblasts bearing L444P at concentrations between 6 and 50 μM is denoted as follows: • Increase in comparison with non-treated of >2.0 fold is shown as A • Increase in comparison with non-treated of >1.7-2.0 fold is shown as B • Increase in comparison with non-treated of 1.2-1.7 fold is shown as C • D means that no increase compared with non-treated cells was detected in this method • ND means “not determined”", "values": [
      {"smiles": "Nc1cc(C(=O)N2CCN(c3ccccc3)CC2)nc(Nc2ccccc2O)n1", "note": "[Example 1, (6-Amino-2-((2-hydroxyphenyl)amino)pyrimidin-4-yl)(4-phenylpiperazin-1-yl)methanone]", "Range: increase in enzyme activity in comparison with non-treated cells (Enzyme activity assay for exemplified compounds)": "C (Increase in comparison with non-treated of 1.2-1.7 fold is shown as C)"},
      {"smiles": "COc1cccc(Nc2nc(N)cc(C(=O)N3CCN(c4ccccc4)CC3)n2)c1", "note": "[Example 2, (6-Amino-2-((3-methoxyphenyl)amino)pyrimidin-4-yl)(4-phenylpiperazin-1-yl)methanone]", "Range: increase in enzyme activity in comparison with non-treated cells (Enzyme activity assay for exemplified compounds)": "C (Increase in comparison with non-treated of 1.2-1.7 fold is shown as C)"},
      {"smiles": "Cc1ccc(Nc2nc(N)cc(C(=O)N3CCN(c4ccccc4)CC3)n2)cc1", "note": "[Example 3, (6-Amino-2-(p-tolylamino)pyrimidin-4-yl)(4-phenylpiperazin-1-yl)methanone]", "Range: increase in enzyme activity in comparison with non-treated cells (Enzyme activity assay for exemplified compounds)": "C (Increase in comparison with non-treated of 1.2-1.7 fold is shown as C)"},
      {"smiles": "CN(Cc1ccccc1)C(=O)c1cc(N)nc(Nc2ccccc2O)n1", "note": "[Example 4, 6-Amino-N-benzyl-2-((2-hydroxyphenyl)amino)-N-methylpyrimidine-4-carboxamide]", "Range: increase in enzyme activity in comparison with non-treated cells (Enzyme activity assay for exemplified compounds)": "C (Increase in comparison with non-treated of 1.2-1.7 fold is shown as C)"},
      {"smiles": "CN(C(=O)c1cc(N)nc(Nc2ccccc2O)n1)c1ccccc1", "note": "[Example 5, 6-Amino-2-((2-hydroxyphenyl)amino)-N-methyl-N-phenylpyrimidine-4-carboxamide]", "Range: increase in enzyme activity in comparison with non-treated cells (Enzyme activity assay for exemplified compounds)": "C (Increase in comparison with non-treated of 1.2-1.7 fold is shown as C)"},
      {"smiles": "Cc1ccc(Nc2nc(N)cc(C(=O)N(C)c3ccccc3)n2)cc1", "note": "[Example 6, 6-Amino-N-methyl-N-phenyl-2-(p-tolylamino)pyrimidine-4-carboxamide]", "Range: increase in enzyme activity in comparison with non-treated cells (Enzyme activity assay for exemplified compounds)": "D"},
      {"smiles": "COc1cccc(Nc2nc(N)cc(C(=O)N(C)c3ccccc3)n2)c1", "note": "[Example 7, 6-Amino-2-((3-methoxyphenyl)amino)-N-methyl-N-phenylpyrimidine-4-carboxamide]", "Range: increase in enzyme activity in comparison with non-treated cells (Enzyme activity assay for exemplified compounds)": "D"},
      {"smiles": "Nc1cc(C(=O)N2Cc3ccccc3C2)nc(Nc2ccccc2O)n1", "note": "[Example 8, (6-Amino-2-((2-hydroxyphenyl)amino)pyrimidin-4-yl)(isoindolin-2-yl)methanone]", "Range: increase in enzyme activity in comparison with non-treated cells (Enzyme activity assay for exemplified compounds)": "C (Increase in comparison with non-treated of 1.2-1.7 fold is shown as C)"},
      {"smiles": "CN(C(=O)c1cc(N)nc(Nc2ccccc2O)n1)C1Cc2ccccc2C1", "note": "[Example 10, 6-Amino-N-(2,3-dihydro-1H-inden-2-yl)-2-((2-hydroxyphenyl)amino)-N-methylpyrimidine-4-carboxamide]", "Range: increase in enzyme activity in comparison with non-treated cells (Enzyme activity assay for exemplified compounds)": "C (Increase in comparison with non-treated of 1.2-1.7 fold is shown as C)"},
      {"smiles": "Nc1cc(C(=O)Nc2ccccc2)nc(Nc2ccccc2O)n1", "note": "[Example 11, 6-Amino-2-((2-hydroxyphenyl)amino)-N-phenylpyrimidine-4-carboxamide]", "Range: increase in enzyme activity in comparison with non-treated cells (Enzyme activity assay for exemplified compounds)": "B (Increase in comparison with non-treated of >1.7-2.0 fold is shown as B)"},
      {"smiles": "Nc1cc(C(=O)NC2CCc3ccccc3C2)nc(Nc2ccccc2O)n1", "note": "(stereo not drawn) [Example 12, 6-Amino-2-((2-hydroxyphenyl)amino)-N-(1,2,3,4-tetrahydronaphthalen-2-yl)pyrimidine-4-carboxamide]", "Range: increase in enzyme activity in comparison with non-treated cells (Enzyme activity assay for exemplified compounds)": "B (Increase in comparison with non-treated of >1.7-2.0 fold is shown as B)"},
      {"smiles": "Nc1cc(C(=O)NC2Cc3ccccc3C2)nc(Nc2ccccc2O)n1", "note": "[Example 13, 6-Amino-N-(2,3-dihydro-1H-inden-2-yl)-2-((2-hydroxyphenyl)amino)pyrimidine-4-carboxamide]", "Range: increase in enzyme activity in comparison with non-treated cells (Enzyme activity assay for exemplified compounds)": "C (Increase in comparison with non-treated of 1.2-1.7 fold is shown as C)"},
      {"smiles": "Nc1cc(C(=O)N2CCN(c3ccccc3)CC2)nc(N[C@H]2CCCC[C@@H]2O)n1", "note": "[Example 14, (6-Amino-2-(((1S,2S)-2-hydroxycyclohexyl)amino)pyrimidin-4-yl)(4-phenylpiperazin-1-yl)methanone]", "Range: increase in enzyme activity in comparison with non-treated cells (Enzyme activity assay for exemplified compounds)": "D"},
      {"smiles": "CN(Cc1ccccc1)C(=O)c1cc(N)nc(N[C@H]2CCCC[C@@H]2O)n1", "note": "[Example 15, 6-Amino-N-benzyl-2-(((1S,2S)-2-hydroxycyclohexyl)amino)-N-methylpyrimidine-4-carboxamide]", "Range: increase in enzyme activity in comparison with non-treated cells (Enzyme activity assay for exemplified compounds)": "D"},
      {"smiles": "Nc1nc(Nc2cccc(Br)c2)nc(C(=O)N2CCN(c3ccccc3)CC2)n1", "note": "[Example 16, (4-Amino-6-((3-bromophenyl)amino)-1,3,5-triazin-2-yl)(4-phenylpiperazin-1-yl)methanone]", "Range: increase in enzyme activity in comparison with non-treated cells (Enzyme activity assay for exemplified compounds)": "C (Increase in comparison with non-treated of 1.2-1.7 fold is shown as C)"},
      {"smiles": "CN(Cc1ccccc1)C(=O)c1nc(N)nc(Nc2cccc(Br)c2)n1", "note": "[Example 17, 4-Amino-N-benzyl-6-((3-bromophenyl)amino)-N-methyl-1,3,5-triazine-2-carboxamide]", "Range: increase in enzyme activity in comparison with non-treated cells (Enzyme activity assay for exemplified compounds)": "D"},
      {"smiles": "CN(C(=O)c1nc(N)nc(Nc2cccc(Br)c2)n1)c1ccccc1", "note": "[Example 18, 4-Amino-6-((3-bromophenyl)amino)-N-methyl-N-phenyl-1,3,5-triazine-2-carboxamide]", "Range: increase in enzyme activity in comparison with non-treated cells (Enzyme activity assay for exemplified compounds)": "D"},
      {"smiles": "Nc1nc(Nc2cccc(Br)c2)nc(C(=O)NC2CCc3ccccc3C2)n1", "note": "(stereo not drawn) [Example 19, 4-Amino-6-((3-bromophenyl)amino)-N-(1,2,3,4-tetrahydronaphthalen-2-yl)-1,3,5-triazine-2-carboxamide]", "Range: increase in enzyme activity in comparison with non-treated cells (Enzyme activity assay for exemplified compounds)": "C (Increase in comparison with non-treated of 1.2-1.7 fold is shown as C)"},
      {"smiles": "COc1ccccc1Nc1nc(N)nc(C(=O)NC2CCc3ccccc3C2)n1", "note": "(stereo not drawn) [Example 20, 4-Amino-6-((2-methoxyphenyl)amino)-N-(1,2,3,4-tetrahydronaphthalen-2-yl)-1,3,5-triazine-2-carboxamide]", "Range: increase in enzyme activity in comparison with non-treated cells (Enzyme activity assay for exemplified compounds)": "C (Increase in comparison with non-treated of 1.2-1.7 fold is shown as C)"},
      {"smiles": "Cc1ccc(Nc2nc(N)cc(C(=O)N(C)Cc3ccccc3)n2)cc1", "note": "[Example 21, 6-Amino-N-benzyl-N-methyl-2-(p-tolylamino)pyrimidine-4-carboxamide]", "Range: increase in enzyme activity in comparison with non-treated cells (Enzyme activity assay for exemplified compounds)": "C (Increase in comparison with non-treated of 1.2-1.7 fold is shown as C)"},
      {"smiles": "Cc1ccc(Nc2nc(N)cc(C(=O)NC3CCc4ccccc4C3)n2)cc1", "note": "(stereo not drawn) [Example 22, 6-Amino-N-(1,2,3,4-tetrahydronaphthalen-2-yl)-2-(p-tolylamino)pyrimidine-4-carboxamide]", "Range: increase in enzyme activity in comparison with non-treated cells (Enzyme activity assay for exemplified compounds)": "A (Increase in comparison with non-treated of >2.0 fold is shown as A)"},
      {"smiles": "COc1cccc(Nc2nc(N)nc3c2CCN(Cc2ccccc2)C3)c1", "note": "[Example 23, 7-Benzyl-N4-(3-methoxyphenyl)-5,6,7,8-tetrahydropyrido[3,4-d]pyrimidine-2,4-diamine]", "Range: increase in enzyme activity in comparison with non-treated cells (Enzyme activity assay for exemplified compounds)": "C (Increase in comparison with non-treated of 1.2-1.7 fold is shown as C)"},
      {"smiles": "COc1ccccc1Nc1nc(N)nc2c1CCN(Cc1ccccc1)C2", "note": "[Example 24, 7-Benzyl-N4-(2-methoxyphenyl)-5,6,7,8-tetrahydropyrido[3,4-d]pyrimidine-2,4-diamine]", "Range: increase in enzyme activity in comparison with non-treated cells (Enzyme activity assay for exemplified compounds)": "C (Increase in comparison with non-treated of 1.2-1.7 fold is shown as C)"},
      {"smiles": "Nc1nc2c(c(Nc3ccccc3O)n1)CCN(Cc1ccccc1)C2", "note": "[Example 25, 2-((2-Amino-7-benzyl-5,6,7,8-tetrahydropyrido[3,4-d]pyrimidin-4-yl)amino)phenol]", "Range: increase in enzyme activity in comparison with non-treated cells (Enzyme activity assay for exemplified compounds)": "B (Increase in comparison with non-treated of >1.7-2.0 fold is shown as B)"}
    ]}
  ]
}
